Measurements as given in patent US20240408169A1 (priority 2023, published 2024).
*1 amine or outer side, *2 acyl side, *3 side chain or, on linkers, in order; H or OH if unused. Where a SMILES comes first, the peptide text is derived from it. Bridges are numbered along the chain shown (N, C = ends). [ ]: non-standard residue; d: D form. The star is where a group is joined. X105 = CN([C@@H](Cc1cc(Cl)ccc1-c1cnn(C2CCOC2)c1)C(=O)[*:2])[*:1]; X86 = CN([C@@H](Cc1cc(Cl)ccc1-c1cnn(C2CCOCC2)c1)C(=O)[*:2])[*:1]; X79 = CC(C)n1cc(-c2ccc(Cl)cc2C[C@@H](C(=O)[*:2])N(C)[*:1])cn1; NMehhhLys(Me) = CN([C@@H](CCCCCCCN(C)[*:3])C(=O)[*:2])[*:1]; NMe3Pal(2-OiPr,5-Cl) = CN[C@@H](Cc1cc(Cl)cnc1OC(C)C)C(=O)O; Cyclobutanecarbonyl(1-CF3) = O=C(C1(C(F)(F)F)CCC1)*; X94 = CN([C@@H](Cc1cc(F)ccc1C1CC1)C(=O)[*:2])[*:1]; cBuCO(3,3-F2-1-CF3) = O=C(C1(C(F)(F)F)CC(F)(F)C1)*; Pro(trans-4-F) = O=C(O)[C@@H]1C[C@@H](F)CN1; Gly(cPr) = N[C@H](C(=O)O)C1CC1

How the values were obtained:
[1] = molecular target: T1, CyclinA2/CDK2 (Homo sapiens, UniProt P20248); experiment: Fluorescence Polarization (FP) competitive binding assay, Cyclin A2/Cdk2; conditions: 8 nM Cyclin A2/Cdk2, 2 nM FAM probe; average of 2-3 independent experiments; read-out: Cyclin A FP IC50;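 note: plates equilibrated two hours at room temperature before polarization reading, IC50 fitted from eight-concentration compound titration curves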
T1 construct: purchased CRELUX Protein Services

[2] = molecular target: T2, CyclinB1/CDK1 (Homo sapiens, UniProt P14635); experiment: Fluorescence Polarization (FP) competitive binding assay, Cyclin B1/Cdk1; conditions: 10 nM Cyclin B1/Cdk1, 2 nM FAM probe; average of 2-3 independent experiments; read-out: Cyclin B FP IC50;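 note: fluorescence polarization read after equilibration at room temperature, with IC50 taken from serially diluted dose-response curves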
T2 construct: purchased Eurofins, discovery 14-450

[3] = molecular target: T3, CyclinE1/CDK2 (Homo sapiens, UniProt P24864); experiment: Fluorescence Polarization (FP) competitive binding assay, Cyclin E1/Cdk2; conditions: 10 nM Cyclin E1/Cdk2, 2 nM FAM probe; average of 2-3 independent experiments; read-out: Cyclin E FP IC50;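 note: readings taken after two-hour equilibration at room temperature in HEPES buffer with NaCl, DTT, NP-40 and BSA, IC50 fitted from eight-concentration serial dilution series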
T3 construct: purchased Eurofins, discovery 14-475

[4] = system: WI-38 cells; experiment: MTT proliferation assay, WI-38; type: cell-based; conditions: 3 days compound exposure, 1:3 serial dilution starting at 10 μM;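 note: Eight- or ten-point dilution series, with exposure length chosen to span about three to four cell doublings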
[5] = system: NCI-H1048 cells; experiment: MTT proliferation assay, NCI-H1048; type: cell-based; conditions: 5 days compound exposure, 1:3 serial dilution starting at 10 μM;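 note: Dose-response in 96-well plates over 8 or 10 concentration points, with exposure spanning 3-4 cell doublings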
[6] = system: OVCAR3 cells; experiment: MTT proliferation assay, OVCAR3; type: cell-based; conditions: 5 days compound exposure, 1:3 serial dilution starting at 10 μM;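 note: compound given as an 8- or 10-point series, one day after plating, with exposure covering roughly 3-4 cell doublings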

Row | Compound | IC50 [1] | IC50 [2] | IC50 [3] | GI50 [4] | GI50 [5] | GI50 [6]
1 | CC(C)C[C@@H]1NC(=O)[C@@H](N(C)C(=O)[C@@H](NC(=O)[C@@H]2C[C@@H](F)CN2C(=O)C2(C(F)(F)F)CC(F)(F)C2)C2CC2)CCCCCCCN(C)C(=O)[C@H](Cc2cc(Cl)ccc2-c2cnn(C(C)C)c2)N(C)C1=O [Example 111] ({cBuCO(3,3-F2-1-CF3)}-[Pro(trans-4-F)][Gly(cPr)][NMehhhLys(Me)]L[X79]; lactam 3-C) | 20 nM | 20 nM | 280 nM | 8130 nM | 10 nM | 10 nM
2 | CC(C)C[C@@H]1NC(=O)[C@@H](N(C)C(=O)[C@@H](NC(=O)[C@@H]2C[C@@H](F)CN2C(=O)C2(C(F)(F)F)CC(F)(F)C2)C2CC2)CCCCCCCN(C)C(=O)[C@H](Cc2cc(Cl)ccc2-c2cnn(C3CCOC3)c2)N(C)C1=O (stereo partly drawn) [Example 113] ({cBuCO(3,3-F2-1-CF3)}-[Pro(trans-4-F)][Gly(cPr)][NMehhhLys(Me)]L[X105]; lactam 3-C) | 20 nM | 20 nM | 310 nM | 7240 nM | 10 nM | 10 nM
3 | CC(C)C[C@@H]1NC(=O)[C@@H](N(C)C(=O)[C@@H](NC(=O)[C@@H]2C[C@@H](F)CN2C(=O)C2(C(F)(F)F)CC(F)(F)C2)C2CC2)CCCCCCCN(C)C(=O)[C@H](Cc2cc(Cl)ccc2-c2cnn(C3CCOCC3)c2)N(C)C1=O [Example 114] ({cBuCO(3,3-F2-1-CF3)}-[Pro(trans-4-F)][Gly(cPr)][NMehhhLys(Me)]L[X86]; lactam 3-C) | 20 nM | 20 nM | 400 nM | 7190 nM | 10 nM | 10 nM
4 | Cc1nnc(-c2ccc(Cl)cc2C[C@H]2C(=O)N(C)CCCCC=CC[C@H](N(C)C(=O)[C@@H](NC(=O)[C@@H]3C[C@@H](F)CN3C(=O)C3(C(F)(F)F)CCC3)C3CC3)C(=O)N[C@@H](CC(C)C)C(=O)N2C)o1 [Example 115] | 40 nM | 20 nM | 170 nM | 11000 nM | 70 nM | 60 nM
5 | CC(C)C[C@@H]1NC(=O)[C@@H](N(C)C(=O)[C@@H](NC(=O)[C@@H]2C[C@@H](F)CN2C(=O)C2(C(F)(F)F)CCC2)C2CC2)CCCCCCCN(C)C(=O)[C@H](Cc2cc(Cl)cnc2OC(C)C)N(C)C1=O [Example 119] ({Cyclobutanecarbonyl(1-CF3)}-[Pro(trans-4-F)][Gly(cPr)][NMehhhLys(Me)]L[NMe3Pal(2-OiPr,5-Cl)]; lactam 3-C) | 30 nM | 20 nM | 100 nM | 8710 nM | 250 nM | 300 nM
6 | CC(C)C[C@@H]1NC(=O)[C@@H](N(C)C(=O)[C@@H](NC(=O)[C@@H]2C[C@@H](F)CN2C(=O)C2(C(F)(F)F)CC(F)(F)C2)C2CC2)CCCCCCCN(C)C(=O)[C@H](Cc2cc(F)ccc2C2CC2)N(C)C1=O [Example 121] ({cBuCO(3,3-F2-1-CF3)}-[Pro(trans-4-F)][Gly(cPr)][NMehhhLys(Me)]L[X94]; lactam 3-C) | 50 nM | 20 nM | 130 nM | 7610 nM | 40 nM | 70 nM
7 | CC(C)C[C@@H]1NC(=O)[C@@H](N(C)C(=O)[C@@H](NC(=O)[C@@H]2C[C@@H](F)CN2C(=O)C2(C(F)(F)F)CC(F)(F)C2)C2CC2)CC=CCCCCNC(=O)[C@H](Cc2cc(Cl)cnc2OC2CC2)N(C)C1=O [Example 129] | 210 nM | 20 nM | 820 nM | 6880 nM | 1460 nM | 2580 nM
8 | CC(C)C[C@@H]1NC(=O)[C@@H](N(C)C(=O)[C@@H](NC(=O)[C@@H]2N[C@@H](F)CC2C(=O)C2(C(F)(F)F)CC(F)(F)C2)C2CC2)CC=CCCCCN(C)C(=O)[C@H](Cc2cc(Cl)cnc2OC(C)C)N(C)C1=O (stereo partly drawn) [Example 130] | 70 nM | 20 nM | 310 nM | 8990 nM | 700 nM | 1550 nM
